# Like-named read-outs stand apart in the source and are kept apart here.
# Tests used:
# [1] = test system: Trypanosoma cruzi; experiment: TC cellular growth inhibition; assay type: cell-based
# [2] = target: TBCYP51 (Trypanosoma brucei brucei, UniProt Q385E8); assay type: binding
# [3] = test system: TC infected cardiomyoblasts; experiment: inhibition of TC multiplication within cardiomyoblasts; assay type: cell-based, Trypanosoma cruzi; details: 30 µM
# [4] = target: I105F mutant of TCCYP51 (Trypanosoma cruzi, UniProt Q7Z1V1, I105F); assay type: binding
# [5] = test system: Trypanosoma brucei; experiment: TB cellular growth inhibition; assay type: cell-based; details: read-out: EC50 / 50% cell growth inhibition for TB, form not stated
# [6] = target: T1, TCCYP51 (Trypanosoma cruzi, UniProt Q7Z1V1); assay type: binding; details: for spectral response: TCCYP51
# [7] = target: T1, TCCYP51; details: cited from earlier work
# [8] = target: T1, TCCYP51; details: cited from earlier work; remark: listed apart in the source
# [9] = target: T1, TCCYP51; assay type: biochemical; details: T. cruzi CYP51, initial rate
# [10] = test system: Trypanosoma cruzi; details: read-out: published EC50 values in TC cells; cited from earlier work
molecule,measurement,setting,value
32-Methylene cyclopropyl-lanost-7-enol [MCP],EC50,"[1]; read-out: 50% cell growth inhibition of TC, TC, form not stated",3000 nM
same,spectral response,[2]; TBCYP51,type 1 spectral responses
same,high spin content (low to high spin transition in the heme iron),"[2]; TBCYP51, maximal upon titration",85%
same,parasite cells cleared from TC infected cardiomyoblasts,[3],more than 90%
same,number of intracellular parasites,"[3]; 72 h, trypanosomes pre-incubated with compound",dramatic decrease in the number of intracellular parasites
same,high spin form,[4],87%
same,spectral response,[4],type 1 spectral responses
same,EC50,[5],> 50000 nM
same,spectral response,[6],type 1 spectral responses
same,high spin content (low to high spin transition in the heme iron),"[6]; TCCYP51, maximal upon titration",41%
"CC(C)CCC[C@@H](C)[C@H]1CC[C@@]2(CN)C3=CCC4C(C)(C)[C@@H](O)CC[C@]4(C)[C@H]3CC[C@]12C (stereo partly drawn) [AL7, 4,4-dimethyl-14α-aminomethyl-cholest-7-en-3β-ol]",I/E2 for the initial rate of TCCYP51 catalysis,[7],11
same,spectral response,[8],type 2 spectral responses
O=C(NC(Cn1ccnc1)c1ccccc1)c1ccc(-c2ccc(Cl)cc2)cc1 (stereo not shown) [SDZ285604],EC50,"[1]; read-out: EC50 (50% cellular growth inhibition), amastigotes (intracellular form) of TC",< 1000 nM
same,EC50,"[1]; read-out: EC50 (50% cellular growth inhibition), trypomastigotes (extracellular form) of TC",< 1000 nM
"CC(C)CCC[C@@H](C)[C@H]1CC[C@@]2(CN)C3=C(CC[C@]12C)[C@@]1(C)CC[C@H](O)C(C)(C)C1CC3 (stereo partly drawn) [AL8, 4,4-dimethyl-14α-aminomethyl-cholest-8-en-3β-ol]",I/E2 for the initial rate of TCCYP51 catalysis,[7],14
same,spectral response,[8],type 2 spectral responses
O=C(Cn1ccnc1[N+](=O)[O-])NCc1ccccc1 [benznidazole],"I/E2 (5 min), molar ratio inhibitor/enzyme which causes a twofold decrease in the activity",[9],42
same,EC50,[10],25000 to 50000 nM
same,spectral response,[6],does not induce spectral changes

# Source: PMC2715142 (Lipids, 2008)
